Laboratory results: patent US11801255B2, “Lipid disulfide prodrugs and uses related thereto” (priority 2017, dated 2023)
Where two headings read alike, the source gives them in different places.

Tests used:
HIV-1 = assay: microbe, parasite or virus in culture; conditions: for TI(CC50/EC50): HIV-1, PBMCs
Experimental: (§1) Compounds synthesized were evaluated against HIV-infected PBMCs and antiviral activity was assessed by measuring reverse transcriptase in cell supernatants. Compounds 11a-e, 12a-e, and 13 were assayed against HBV and qPCR was used to quantify viral DNA following incubation in HepG2.2.15 cells after 6 days.

PBMCs = assay: in vitro; assay type: cell-based, human
HBV = assay: Antiviral activity against HBV in HepG2.2.15 cells, viral DNA by qPCR after 6 days; conditions: for HBV TI (CC50/EC50): HepG2
Experimental: as §1

HepG2 = assay: Cytotoxicity: viability of uninfected HepG2 cells; assay type: cell-based; conditions: read-out: HBV CC50 (HepG2)
[1] = Stability in human plasma/serum by LC-MS; assay type: in vitro ADME
Experimental: Aliquots of each sample were analyzed by LC-MS at varying times points over the course of 2 hours with a final time point at 24 to assess decomposition.

in vitro = assay type: cell-based, human; conditions: human, uninfected PBMCs; Table 1; viability of uninfected cells reduced by 50%; read-out: HIV-1 CC50 (PBMCs)
[2] = Cytotoxicity: viability of uninfected HepG2 cells; assay type: cell-based; conditions: human, uninfected HepG2 cells; Table 1; uninfected cells; read-out: HBV CC50 (HepG2)
[3] = Stability in PBS (pH 7.4), carbonate/bicarbonate buffer (pH 9) and DMEM by LC-MS; conditions: for half-life: PBS buffer
Experimental: Compound 11c and 11d were selected as model compounds and subjected to various media including human serum, PBS buffer (pH 7.4), Dulbecco's Modified Eagle Medium (DMEM), and carbonate/bicarbonate buffer (pH 9). Aliquots of each sample were analyzed by LC-MS at varying times points over the course of 2 hours with a final time point at 24 to assess decomposition.
Experiments were performed to see how compounds how compounds 11c and 11d would fare in the presence of base (pH 9), PBS (pH 7.4), and upon exposure to nucleophilic media (DMEM). […] To this end, the stability of hexadecyloxypropyl 2′-deoxy-2′-fluorouridine, a non-labile alkoxyalkyl lipid conjugate of 2′-deoxy-2′-fluorouridine in PBS buffer using Pyrex, Kimax, and silanized glassware was assessed. […] This prompted re-assessment of the PBS stability of the disulfide lipid conjugates in Kimax glassware. Note that all stability experiments were performed in Kimax glassware using hexadecyloxypropyl 2′-deoxy-2′-fluorouridine as an internal standard.

[4] = read-out: HIV-1 activity (EC50), PBMCs
[5] = Table 1, viability of uninfected cells reduced by 50%, read-out: HIV-1 CC50 (PBMCs)
[6] = read-out: HBV EC50 (HepG2), Table 1, inhibit HBV by 50%
[7] = Table 4, read-out: CC50 (PBMCs)
[8] = read-out: HIV-1 EC50 (PBMCs), Table 1, inhibit HIV-1 by 50%, average of triplicate
[9] = read-out: EC50 (PBMCs), Table 4, HIV-1

Compound	HIV-1 TI (CC50/EC50) (HIV-1; Table 1, PBMCs)	CC50 (PBMCs; [5]) [µM]	HBV TI (CC50/EC50) (HBV; Table 1)	EC50 (HBV; [6]) [µM]	CC50 (HepG2; Table 1, uninfected cells) [µM]	TI(CC50/EC50) (HIV-1; Table 4)	CC50 (PBMCs; [7]) [µM]	other results
CCCCCCCCCCSSCCOP(=O)(O)CO[C@H](C)Cn1cnc2c(N)ncnc21.N [Compound 11a]	>590	> 50	>1	> 50	> 50			fold less potent than TDF, HIV-1 (HIV-1; EC50 ratio vs TDF): 18 fold; EC50 (HIV-1; [4]): 0.085 µM
CCCCCCCCCCCCCCCCSSCCOP(=O)(COC(C)Cn1cnc2c(N)ncnc21)OC (mixture of isomers) [Compound 13]						1,500	38.2	EC50 (HIV-1; [4]): 0.026 µM
C[C@H](Cn1cnc2c(N)ncnc21)OCP(=O)(O)OCCSSCCO [DTE-TFV, reference compound]	>62.1	> 100	>8.6	11.6	> 100			fold less active than TFV against HIV-1 (HIV-1): 5 fold; EC50 (HIV-1; [8]): 1.61 µM; t1/2 in human plasma ([1]; human plasma): 0.567 h
CCCCCCCCCCCCCCCCSSCCOP(=O)(O)COC(C)Cn1cnc2c(N)ncnc21 (stereo not shown) [Compound 11d, 2-(hexadecyldisulfanyl)ethyl hydrogen (((1-(6-amino-9H-purin-9-yl)propan-2-yl)oxy)methyl)phosphonate]	22,000		>1250					EC50 (HIV-1; Human immunodeficiency virus 1, PBMC, read-out: HIV-1 EC50 (PBMCs)): 0.00065 µM; EC50 (HIV-1; Human immunodeficiency virus 1, PBMC, read-out: HIV-1 activity (EC50)): ~0.0005 µM; HIV-1 TI (CC50/EC50) (HIV-1; Table 3, PBMCs): 22,000; CC50 (in vitro): 14.3 µM; EC50 (HBV; Hepatitis B virus, HepG2, read-out: HBV EC50 (HepG2)): 0.02 µM; EC50 (HBV; Hepatitis B virus, HepG2, read-out: HBV potency): 0.02 µM; HBV TI (CC50/EC50) (HBV; Table 3): >1200; CC50 [2]: > 25 µM; CC50 (HepG2; Table 3): > 25 µM; half-life ([1]; human serum, Kimax glassware, read-out: stability (half-life) in human serum): > 24 h; half-life ([1]; human, human plasma, read-out: half-life in human plasma): > 24 h; half-life ([3]; carbonate/bicarbonate buffer and DMEM, pH 9): ≤ 2 h; half-life ([3]; pH 7.4): < 0.333 h
CCCCCCCCCCSSCCOP(=O)(CO[C@H](C)Cn1cnc2c(N)ncnc21)OCCSSCCCCCCCCCC [Compound 12a]								HIV-1 TI (CC50/EC50) (HIV-1; Table 2, PBMCs): >287; HIV-1 potency compared to parent nucleoside TFV (HIV-1; in words): comparable to TFV; EC50 (HIV-1; read-out: HIV-1 EC50 (PBMCs), Table 2): 0.349 µM; CC50 (PBMCs; Table 2, read-out: HIV-1 CC50 (PBMCs)): > 100 µM; HBV TI (CC50/EC50) (HBV; Table 2): >1; EC50 (HBV; read-out: HBV EC50 (HepG2), Table 2): > 100 µM; CC50 (HepG2; Table 2): > 100 µM
CCCCCCCCCCCCCCCCCCSSCCOP(=O)(O)CO[C@H](C)Cn1cnc2c(N)ncnc21.N [Compound 11e]	11,000	6.36	>50	0.505	> 50			EC50 (HIV-1; [8]): 0.0006 µM
CCCCCCCCCCCCCCCCSSCCOP(=O)(COC(C)Cn1cnc2c(N)ncnc21)OC(C)CC (mixture of isomers) [Compound 17]						480	23.7	EC50 (HIV-1; [9]): 0.049 µM; HIV-1 activity of s-Bu ester relative to n-Bu analogue 16 (HIV-1; vs compound 16): nearly four-fold
CCCCCCCCCCCCCCSSCCOP(=O)(O)CO[C@H](C)Cn1cnc2c(N)ncnc21.N [Compound 11c]	28,000	14	>56	0.444	> 25			EC50 (HIV-1; [8]): 0.0005 µM; stability of C14 chain relative to C16 linker of compound 11d ([3]; all examined media except human serum): near two-fold stability increase
CCCCCCCCCCCCCCCCSSCCOP(=O)(COC(C)Cn1cnc2c(N)ncnc21)OCCC (mixture of isomers) [Compound 15]						49.0	10.6	EC50 (HIV-1; [9]): 0.216 µM
CCCCCCCCCCCCSSCCOP(=O)(O)CO[C@H](C)Cn1cnc2c(N)ncnc21.N [Compound 11b]	8,300	25	>30	1.67	> 50			EC50 (HIV-1; [4]): 0.003 µM; fold more active than CMX-157, HIV-1 (HIV-1; vs CMX-157 (20 nM)): seven-fold
CCCCCCCCCCCCCCCCSSCCOP(=O)(COC(C)Cn1cnc2c(N)ncnc21)OCCCC (mixture of isomers) [Compound 16]						150	27.9	EC50 (HIV-1; [9]): 0.19 µM
